Source: patent US20120264827A1, “SULFANYLAMIDE DERIVATIVES, USES THEREOF AND COMPOSITIONS COMPRISING THEM” (YISSUM RESEARCH DEVELOPMENT COMPANY OF THE HEBREW …, priority 2009, published 2012)
Read-outs that look alike come from different tables or passages of the source.

How the values were obtained:
[1] = system: maximal electroshock seizure (MES); details: cited from earlier work
[2] = system: subcutaneous metrazol (pentylenetetrazol) seizure; details: reference AED; species not stated; cited from earlier work
[3] = system: maximal electroshock seizure (MES); details: rats, cited from earlier work; for PI (TD50/ED50) in rat MES test: reference or literature compound
[4] = system: maximal electroshock seizure (MES); assay: Maximal electroshock seizure test (MES), mice, intraperitoneal; type: in vivo; details: ip;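 note: adult male CF no. 1 albino mice of 18–25 g, given compound intraperitoneally as a 0.5% methylcellulose suspension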
[5] = system: subcutaneous metrazol (pentylenetetrazol) seizure; assay: Subcutaneous metrazol seizure threshold test (scMet), mice, intraperitoneal; type: in vivo; details: ip;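 note: adult male CF no. 1 albino mice weighing 18-25 g, dosed intraperitoneally with compounds suspended in 0.5% methylcellulose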
[6] = system: maximal electroshock seizure (MES); details: male, Sprague-Dawley, rat, in vivo, po
Method: (§1) The tested compounds were suspended in 0.5% methylcellulose and administered (a) intraperitioneally (ip) to adult male CF no. 1 albino mice (18-25 g) in volume of 0.01 mL/g body weight and (b) orally to adult male Sprague-Dawley albino rats (100-150 g) in volume of 0.04 mL per 10 g of body weight.
(§2) The TD50 was determined by varying the dose of the tested compounds until four points were established between the dose level that induced no signs of minimal motor impairment in any of the animals and the dose at which all the animals were considered impaired. […] The PIs were calculated by dividing the TD50 by the ED50.

[7] = system: subcutaneous metrazol (pentylenetetrazol) seizure; details: male, Sprague-Dawley, rat, in vivo, po
Method: (§3) The evaluation of the anticonvulsant activity in the maximal electroshock seizure test (MES) and subcutaneous metrazol seizure threshold test (scMet) and the determination of neurotoxicity in the rotorod test, positional sense test, and others were performed according to the protocols described in White, H. S., Woodhead J. H., Wilcox K. S., Stables J. P., Kupferberg H. J., Wolf H. H., Discovery and Preclinical Development of Antiepileptic Drugs; 5th ed.; Lippincott Williams &Wilkins: New york, 2002; 36-48.
(§4) The tested compounds were suspended in 0.5% methylcellulose and administered (a) intraperitioneally (ip) to adult male CF no. 1 albino mice (18-25 g) in volume of 0.01 mL/g body weight and (b) orally to adult male Sprague-Dawley albino rats (100-150 g) in volume of 0.04 mL per 10 g of body weight. The pentylenetetrazol solution at convulsing dose was prepared by sufficient dissolution of pentylenetetrazol in 0.9% saline to make 0.85% solution for administration to mice and a 2.82% solution for administration to rats.
as §2

in vivo = details: male, Sprague-Dawley, rat, po
Method: as §1, §2

[8] = system: subcutaneous metrazol (pentylenetetrazol) seizure; assay: animal or person; details: Rattus norvegicus, po, read-out: scMet ED50
Method: as §3, §4, §2

[9] = system: maximal electroshock seizure (MES); assay: Maximal electroshock seizure test (MES), rats, oral; details: Rattus norvegicus, po; for responders at 30 mg/kg: read-out: Anti-MES activity (number of animals protected/number of animals tested); for ED50: read-out: MES ED50, rats dosed orally, interval in parentheses = 95% confidence interval;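 for all read-outs here: adult male Sprague-Dawley rats received test compounds by mouth as a suspension in 0.5% methylcellulose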
Method: as §1, §2

rats = assay: Neurotoxicity, median neurotoxic dose (TD50), rats, oral; details: rats dosed orally
Method: as §1, §2

[10] = 30 mg/kg, 0.5 h after administration
[11] = 30 mg/kg, 4 h after administration
[12] = 100 mg/kg, 0.5 h after administration
[13] = 100 mg/kg, 4 h after administration
[14] = 300 mg/kg, 0.5 h after administration
[15] = 300 mg/kg, 4 h after administration

Compound: CCCC(CCC)C(=O)Nc1ccc(S(N)(=O)=O)cc1 [Compound 6, 4-(valproylamido)-benzenesulfonamide]
- mice-MES test ED50 ([1]; mice, previous studies): 21 mg/kg

Compound: NS(=O)(=O)Cc1noc2ccccc12 [Zonisamide]
- anticonvulsant activity in the scMet test [2]: does not display anticonvulsant activity
- Rat-MES test ED50 ([3]; reference AED): 21 mg/kg
- PI (TD50/ED50) in rat MES test [3]: 9.1

Compound: CC1(C)C(C(=O)Nc2ccc(S(N)(=O)=O)cc2)C1(C)C [Compound 7, 4-(2,2,3,3-tetramethylcyclopropanecarboxamido)-benzenesulfon amide]
- MES test ED50 ([1]; MES test in mice and rats, previously synthesized by the inventors): 26 mg/kg

Compound: CCCC(C(=O)Nc1ccc(S(N)(=O)=O)cc1)C(C)C (centres unmarked) [Compound 18, 2-Isopropyl-N-(4-sulfamoyl-phenyl)-pentanamide]
- MES (number of animals protected/number of animals tested) [4, 10]: 0/1
- MES (number of animals protected/number of animals tested) [4, 11]: 0/1
- MES (number of animals protected/number of animals tested) [4, 12]: 0/3
- MES (number of animals protected/number of animals tested) [4, 13]: 2/3
- MES (number of animals protected/number of animals tested) [4, 14]: 1/1
- MES (number of animals protected/number of animals tested) [4, 15]: 1/1
- scMet (number of animals protected/number of animals tested) [5, 10]: 0/1 0/1 0/1
- scMet (number of animals protected/number of animals tested) [5, 11]: 0/1 0/1 0/1
- scMet (number of animals protected/number of animals tested) [5, 12]: 0/1 0/1 0/1
- scMet (number of animals protected/number of animals tested) [5, 13]: 0/1 0/1 0/1
- scMet (number of animals protected/number of animals tested) [5, 14]: 0/1 0/1 0/1
- scMet (number of animals protected/number of animals tested) [5, 15]: 0/1 0/1 0/1
- melting point: 217 to 219 °C
- PI, protective index (PI = TD50/ED50) in the MES test [6]: >12.0
- PI, protective index (PI = TD50/ED50) in the scMet test [7]: >2
- TD50 (in vivo): > 500 mg/kg
- ED50 [8]: > 250 mg/kg
- responders at 30 mg/kg ([9]; 0.5 h): 0%
- responders at 30 mg/kg ([9]; 1 h): 100%
- responders at 30 mg/kg ([9]; 2 h): 75%
- responders at 30 mg/kg ([9]; 4 h): 50%
- responders at 30 mg/kg ([9]; […]): 0%
- ED50 [9]: 41.5 mg/kg

Compound: CCCCC(CC)C(=O)Nc1ccc(S(N)(=O)=O)cc1 (centres unmarked) [Compound 25, 2-Ethyl-N-(4-sulfamoyl-phenyl)-hexanamide]
- MES (number of animals protected/number of animals tested) [4, 10]: 0/1
- MES (number of animals protected/number of animals tested) [4, 11]: 0/1
- MES (number of animals protected/number of animals tested) [4, 12]: 3/3
- MES (number of animals protected/number of animals tested) [4, 13]: 3/3
- MES (number of animals protected/number of animals tested) [4, 14]: 1/1
- MES (number of animals protected/number of animals tested) [4, 15]: 1/1
- scMet (number of animals protected/number of animals tested) [5, 10]: 0/1
- scMet (number of animals protected/number of animals tested) [5, 11]: 0/1 0/1 0/1
- scMet (number of animals protected/number of animals tested) [5, 12]: 2/5
- scMet (number of animals protected/number of animals tested) [5, 13]: 0/1 0/1 0/1
- scMet (number of animals protected/number of animals tested) [5, 14]: 3/5
- scMet (number of animals protected/number of animals tested) [5, 15]: 0/1 0/1 0/1
- melting point: 188 to 190 °C
- PI, protective index (PI = TD50/ED50) in the MES test [6]: >21.0
- PI, protective index (PI = TD50/ED50) in the scMet test [7]: >2
- TD50 (in vivo): > 500 mg/kg
- ED50 [8]: > 250 mg/kg
- responders at 30 mg/kg ([9]; 0.5 h): 0%
- responders at 30 mg/kg ([9]; 1 h): 100%
- responders at 30 mg/kg ([9]; 2 h): 75%
- responders at 30 mg/kg ([9]; 4 h): 100%
- responders at 30 mg/kg ([9]; […]): 0%
- ED50 [9]: 23.9 mg/kg

Compound: CCCC(CCC)C(=O)O [VPA, 2-propylpentanoic acid]
- TD50 (neurotoxicity) (rats): 784 mg/kg

Compound: CC1(C)C(C(=O)Nc2nnc(S(N)(=O)=O)s2)C1(C)C [5-(2,2,3,3-tetramethylcyclopropanecarboxamide)-1,3,4-thiamidazole-2-sulfonamide]
- PI (TD50/ED50) in rat MES test [3]: above 50
